Assay results taken from paper PMC5402281, “Functional, thermodynamics, structural and biological studies of in silico-identified inhibitors of Mycobacterium tuberculosis enoyl-ACP(CoA) reductase enzyme” (Scientific Reports, 2017).

How the values were obtained:
MtInhA = molecular target: T1, MtInhA (Mycobacterium tuberculosis, UniProt P9WGR1); assay: MtInhA enzyme inhibition by steady-state kinetics (NADH oxidation at 340 nm); format: biochemical; settings: for Ki: EI complex; for mode of inhibition with respect to NADH / mode of inhibition with respect to DD-CoA: Lineweaver-Burk plot
T1 construct: made in house
Procedure: In order to assess the relative potency of the compounds, inhibition studies were performed by steady-state kinetic studies using a UV-2550 UV/Visible spectrophotometer (Shimadzu^©), monitoring the NADH oxidation at 340 nm (εβ-NADH = […]), in the forward direction. Experiments were performed at 25 °C, in 100 mM Pipes pH 7.0 and were started with the addition of the 2.2 μM MtInhA to a total reaction volume of 500 μL, and monitoring the change in absorbance for 1 min. […] This is needed as IC50 and classical competitive, non-competitive and uncompetitive inhibition modes follow a rapid equilibrium process. Accordingly, MtInhA (2.2 μM) was pre-incubated with inhibitor (10 μM), aliquots were taken at different times and added to the reaction mixture containing NADH (60 μM) and DD-CoA (45 μM), and initial velocity measurements were plotted as a function of time of pre-incubation[6]. Control experiments were carried out pre-incubating MtInhA (2.2 μM) with DMSO (5%) in the absence of inhibitors, and initial velocity measured as a function of time of pre-incubation[6].
The IC50 value, which defines the concentration of inhibitor required to […], was calculated for each compound. The maximal rate for the enzyme reaction was determined in the absence of inhibitor, in the presence of fixed non-saturating concentration of NADH (60 μM ≅ Km) and DD-CoA (45 μM ≅ Km)[10][11][14]. The reaction velocity was analyzed as the percentage of inhibition as a function of inhibitor concentration and data were fitted to Eq 1.
The most promising compounds were further evaluated to assess the inhibition profile and to determine the inhibition constant (Ki). Initial rates were measured as a function of NADH concentration (10–160 μM) at fixed non-saturating DD-CoA concentration (45 μM) and fixed-varied inhibitor concentrations (0.5–120 μM). The Ki values towards NADH were calculated using the uncompetitive equation (Eq. 2) for compounds Labio_6 and Labio_16, in which [I] is the inhibitor concentration, [S] is the substrate concentration, Km and Vmax are, respectively, the Michaelis-Menten constant and maximum velocity, and Kii is the overall inhibition constant for the ESI complex. The Ki of Labio_03 was determined previously.
For compounds Labio_2, Labio_11, Labio_15 and Labio_17, the Ki values with respect to NADH were calculated using Eq. 3, which describes a non-competitive inhibition, where [I] is the inhibitor concentration, [S] is the substrate concentration, Km and Vmax are, respectively, the Michaelis-Menten constant and maximum velocity, Kii is the overall inhibition constant for the ESI complex and Kis is the overall inhibition constant for the EI complex.
Inhibition studies were also carried out in the presence of fixed non-saturating concentration of NADH (60 μM) and fixed-varied inhibitor concentrations (0.5–120 μM), when DD-CoA was the variable substrate (15–135 μM). For compounds Labio_2, Labio_6, and Labio_16, the inhibition constants for the DD-CoA substrate were determined using Eq. 3 for the non-competitive mode of inhibition. For compounds Labio_11, Labio_15 and Labio_17, the Ki for this substrate were calculated from data fitting to the equation for competitive inhibition (Eq. 4), in which [I] is the inhibitor concentration, [S] is the substrate concentration, Km and Vmax are, respectively, the Michaelis-Menten constant and maximum velocity, and Kis is the overall inhibition constant for the EI complex.

Zebrafish embryos = settings: zebrafish (Danio rerio)
Procedure: An HPLC equipped with a quaternary pump, DAD detector, degasser, column oven and an automatic injection system was used in this set of experiments (Thermo® Scientific, Sunnyvale, USA). Stock standard solutions (1 M) of Labio_16 and Labio_17 were prepared by diluting each standard in DMSO. Standard solutions were prepared by diluting the stock solution in fish water, yielding final concentrations of 0.625, 1.25, 2.50, 5.0 and 10.0 μM for Labio_16; and 0.625, 1.25, 2.50, 5.0, 10.0 and 20 μM for Labio_17 in a final volume of 0.5 mL.
Chromatographic separations were carried out using a Nucleodur C-18 column at 20 °C. The mobile phase was a 20:80% mixture of 0.1% glacial acetic acid and acetonitrile:methanol 1:1 (v/v) for Labio_16, and a mixture of 20:80% of 20 mM of ammonium acetate and acetonitrile:methanol 1:1 (v/v) for Labio_17. A flow rate of 1.5 mL min^−1 was employed in isocratic mode, with run time of 7 minutes for Labio_16 and 12 minutes for Labio_17. The DAD detector was set at 300 nm and a full scan was continuously performed. The calibration curve for both analytes presented a correlation coefficient above 0.99.

[1] = Ki DD-CoA Kis, varied DD-CoA 15–135 μM, fixed NADH 60 μM
[2] = varied NADH 10–160 μM, fixed DD-CoA 45 μM, ESI complex

T1 sequence (P9WGR1 whole entry, looked up): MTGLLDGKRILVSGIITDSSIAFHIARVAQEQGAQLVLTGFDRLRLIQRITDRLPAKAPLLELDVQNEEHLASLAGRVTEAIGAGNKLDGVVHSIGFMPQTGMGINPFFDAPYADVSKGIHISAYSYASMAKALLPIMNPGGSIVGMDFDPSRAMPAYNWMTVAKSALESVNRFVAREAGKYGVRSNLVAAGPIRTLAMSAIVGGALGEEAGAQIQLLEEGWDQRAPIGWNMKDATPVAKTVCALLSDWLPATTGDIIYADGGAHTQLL

SMILES	IC50 (MtInhA) [µM]	Ki (MtInhA; [1]) [µM]	mode of inhibition with respect to NADH (MtInhA; fixed DD-CoA 45 μM)	mode of inhibition with respect to DD-CoA (MtInhA; fixed NADH 60 μM)	Ki DD-CoA Kii (MtInhA; varied DD-CoA 15–135 μM, fixed NADH 60 μM, ESI complex) [µM]	Ki NADH Kii (MtInhA; [2]) [µM]	decrease of compound in in vivo assay medium (Zebrafish embryos) [%]	Ki (MtInhA; Ki NADH Kis, varied NADH 10–160 μM, fixed DD-CoA 45 μM) [µM]
Cc1ccccc1OCc1nc(-c2ccc(NC(=O)c3cccs3)cc2)no1 [Labio_16]	24 ± 2	13 ± 1	uncompetitive	non-competitive	8 ± 3	7 ± 1	55 ± 2	–
CCOC(=O)c1ccc2nc(C)cc(Nc3ccc(N4CCCCC4)cc3)c2c1 [Labio_17]	20 ± 3	6.3 ± 0.7	non-competitive	competitive	–	8 ± 1	55 ± 2	8 ± 3
